# Laboratory results taken from patent EP3335720A1, “C-DI-GMP BINDING PEPTIDES” (Universität Basel, priority 2016, dated 2018).
# Like-named read-outs stand apart in the source and are kept apart here. Peptide text beside a SMILES is read from it. * marks the point of attachment. FITC = O=C1OC2(c3ccc(O)cc3Oc3cc(O)ccc32)c2ccc(NC(=S)*)cc21
# Columns and labels:
# epithelial HeLa cells = assay: Cytotoxicity assays: resazurin reduction assay and LDH release assay; type: cell-based, human; settings: 24 hours, Figures 11 and 12
# Procedure: The cytotoxicity of the peptides was determined with a Resazurin cell viability assay (Sigma #R7017). In a 96-well plate (Corning #3904), monolayers of epithelial HeLa ATCC CCL-2 cells were grown in 100 µl growth medium (DMEM (Sigma #D5796) containing 10% FCS). Afterwards, the medium was removed and either replaced by DMEM/10% FCS containing 2-fold serial diluted peptides with a highest concentration of 256 mg/L. After 24 hours, the medium was removed and replaced by 100 µl fresh growth medium. 1% Triton X-100 (Sigma) was used as positive lysis control. 20 µl of resazurin solution (0.1 mg/ml) was added. After 2 hours, the fluorescence signal was recorded using a microplate reader (Synergy H4 BioTek) with an excitation wavelength of 560 nm and emission wavelength 590 nm.
# Cells were prepared and treated with peptides as described for the resazurin reduction assay. 24 hours after peptide treatment, control wells were treated with 1% Triton X-100 (Sigma) as lysis control. LDH release was measured using the LDH Cytotoxicity Detection Kit (Clontech). Absorbance was measured at 490 nm using a microplate reader (Synergy H4 BioTek). The percentage of cell death was calculated as follows: (LDH peptide treated - LDH untreated)/(LDH total lysis - LDH untreated)* 100.
# [1] = tested on: P. aeruginosa PAO1 biofilms; type: cell-based
# Procedure: The parameter "MBIC50", as used herein, is defined as the peptide concentration leading to 50% biofilm reduction in a standard biofilm assay. Preferably, the medium used for the assay is Mueller-Hinton broth (MHB), since most bacteria can be grown in this medium, and it allows a reliable comparison of MBIC values. MBIC50 values in accordance with the invention are obtained by growing P. aeruginosa at 37°C in presence of different concentrations of peptides, without agitation, for 24 h, followed by staining the adherent biofilm, dissolving the biofilm and measuring the OD600.
# The standard biofilm assay (O'Toole G.A., Pratt L.A., Watnick P.I., Newman D.K., Weaver V.B., and Kolter R. 1999. Genetic approaches to study of biofilms. Methods Enzymol. 310: 91-109) was followed with minor modification, i.e. Mueller-Hinton II broth (MHB) (Becton Dickinson #212322) was used instead of lysogenic broth (LB) or minimal medium. MHB is preferred by The European Committee on Antimicrobial Susceptibility Testing (EUCAST) as the medium for MIC determination because most bacteria can be grown in this medium, which allows a more reliable MIC values comparisons. The MBIC50 was defined as the peptide concentration leading to 50% biofilm reduction (de la Fuente-Nunez C., Korolik V., Bains M., Nguyen U., Breidenstein E. B. M., Horsman S., Lewenza S., Burrows L., Hancock, R. E. W. (2012) Inhibition of bacterial biofilm formation and swarming motility by a small synthetic cationic peptide. 56: 2696-2704). MBIC50 values were obtained by growing P. aeruginosa (PAO1) biofilms in 96-well plates (Falcon #353072) in presence of peptides at 37°C without agitation in MHB. After 24 hours, bacterial growth was evaluated by measuring the OD600 in a microtiter plate reader (EL800, BioTek). Afterwards, the plates were rinsed three times with demineralized water to remove non-attached bacteria. The adherent biofilms were stained with 0.1% Crystal Violet and subsequently dissolved in 20% acetic acid. Dissolved biofilms were quantified by measuring the OD600 in a microtiter plate reader.
# c-di-GMP = assay: Binding affinity of peptides to c-di-GMP by isothermal titration calorimetry (ITC); settings: for Kd: Table 3, peptides with amino acid substitution, 15°C, pH 8.0, read-out: Dissociation constant
# Procedure: Binding affinities of peptides to c-di-GMP were measured using isothermal titration calorimetry (ITC) on a VP-ITC MicroCalorimeter (MicroCal, Northampton, MA, USA). Peptides, c-di-GMP and buffer (50 mM Tris-HCl, pH 8.0, 100 mM NaCl) were degassed for 15 min prior to filling into sample cell and syringe. All experiments were carried out at a temperature of 15°C. The data were evaluated using ITC Data Analysis in ORIGIN provided by the manufacturer.
# in vitro = in vitro ADME, P. aeruginosa PAO1; settings: cells or culture medium
# Procedure: P. aeruginosa PAO1 lysate, which was used to test peptide stability, was prepared by the following procedure. 500 ml of cells grown overnight at 37°C were harvested by centrifugation at 5000 rpm, 10 min at 4°C. Pellets were resuspended in 60 ml PBS (Gibco) and centrifuged at 5000 rpm, 10 min at 4°C. Pellets were resuspended again in 20 ml PBS and centrifuged at 5000 rpm, 10 min at 4°C. Cells were disrupted using high-pressure cell disrupter (Stansted Fluid Power). Cell lysate was separated from cell debris by centrifugation at 14,000 rpm for 20 min at 4°C. Lysate was diluted 10 fold to yield a protein content of about 1 mg/ml. The lysate was used for all experiments described below.
# The stability of peptides was tested against P. aeruginosa PAO1 cell lysate. About 1 to 3 µg of peptides were incubated with 5 µl P. aeruginosa PAO1 cell lysate or PBS (untreated controls) at 37°C. After 2 hours, 6 µl of 2x SDS sample buffer was added to the samples and heated to 95°C for 5 min. Samples were analyzed on 10-20% Mini-PROTEAN tris-tricine gels (BIO-RAD #4563115) according to manufacturer's recommended protocol. Band intensities were quantified using the program ImageJ (Schneider, C. A., Rasband, W. S. and Eliceiri, K. W. 2012. NIH Image to ImageJ: 25 years of image analysis. Nature methods. 9: 671-675).
Compound,remaining at 2 h (in vitro) [%],Kd (c-di-GMP) [µM],further results
"C[C@H](NC(=O)[C@H](CO)NC(=O)[C@H](CC(N)=O)NC(=O)[C@H](Cc1ccccc1)NC(=O)[C@H](CCCNC(=N)N)NC(=O)[C@H](CCCNC(=N)N)NC(=O)[C@H](CCCNC(=N)N)NC(=O)[C@H](CC(=O)O)NC(=S)Nc1ccc2c(c1)C(=O)OC21c2ccc(O)cc2Oc2cc(O)ccc21)C(=O)N[C@@H](CC(=O)O)C(=O)N[C@@H](Cc1ccc(O)cc1)C(=O)N[C@@H](CCCCN)C(=O)NCC(=O)N1CCC[C@H]1C(=O)N[C@@H](CCCNC(=N)N)C(=O)N[C@@H](CCCNC(=N)N)C(=O)N[C@@H](CCCNC(=N)N)C(=O)N[C@@H](CCCCN)C(=O)N[C@@H](C)C(=O)N[C@@H](CC(=O)O)C(N)=O [SEQ ID NO: 43, FITC-DRRRFNSADYKGPRRRKAD-NH2] ({FITC}-DRRRFNSADYKGPRRRKAD-NH2)",–,–,concentration up to which no toxic effect was shown (epithelial HeLa cells): ≤ 64 µg/mL
Ac-DRRRFNSADYKGPRRRKAD-NH2 [compound 12],–,–,"MBIC50 ([1]; PAO1, 24 h): 0.25 to 0.5 mg/L"
"Ac-DRRRANSADYKGPRRRKAD-NH2 [SEQ ID NO: 17, AC-DRRRANSADYKGPRRRKAD-NH2]",70,–,"binding affinity to c-di-GMP, in words (c-di-GMP; compared to the core sequence / peptide of SEQ ID NO: 12): does not significantly reduce binding affinity"
Ac-DRRRFNSADYKGPRARKAD-NH2 [compound 27],2,3.95,–
Ac-DRRRFNSLDYKGPRRRKAD-NH2 [compound 20],27,0.1,–
Ac-DRRRFNSAAYKGPRRRKAD-NH2 [compound 21],2,0.15,–
Ac-DRRRFASADYKGPRRRKAD-NH2 [compound 18],1,0.22,–
Ac-ARRRFNSADYKGPRRRKAD-NH2 [compound 13],56,1.53,–
Ac-DRRRFNSADYKGARRRKAD-NH2 [compound 25],30,0.35,–
Ac-DRRRFNSADAKGPRRRKAD-NH2 [compound 22],39,4.36,–
Ac-DRARFNSADYKGPRRRKAD-NH2 [compound 15],11,1.51,–
Ac-DRRRFNSADYKGPARRKAD-NH2 [compound 26],27,1.83,–
Ac-DRRRFNAADYKGPRRRKAD-NH2 [compound 19],30,0.21,–
C[C@H](NC(=O)[C@H](CO)NC(=O)[C@H](CC(N)=O)NC(=O)[C@H](Cc1ccccc1)NC(=O)[C@H](CCCNC(=N)N)NC(=O)[C@H](CCCNC(=N)N)NC(=O)[C@H](CCCNC(=N)N)NC(=O)CNC(=O)[C@H](CC(=O)O)NC(=O)[C@H](CCCNC(=N)N)NC(=O)[C@H](CCCNC(=N)N)NC(=O)[C@H](CCCNC(=N)N)NC(=O)[C@H](CCC(N)=O)NC(=O)[C@H](CCCNC(=N)N)NC(=O)[C@H](CCCNC(=N)N)NC(=O)[C@H](CCCCN)NC(=O)[C@H](CCCCN)NC(=O)[C@H](CCCNC(=N)N)NC(=O)CNC(=O)[C@H](Cc1ccc(O)cc1)NC(=S)Nc1ccc2c(c1)C(=O)OC21c2ccc(O)cc2Oc2cc(O)ccc21)C(=O)N[C@@H](CC(=O)O)C(=O)N[C@@H](Cc1ccc(O)cc1)C(=O)N[C@@H](CCCCN)C(=O)NCC(=O)N1CCC[C@H]1C(=O)N[C@@H](CCCNC(=N)N)C(=O)N[C@@H](CCCNC(=N)N)C(=O)N[C@@H](CCCNC(=N)N)C(=O)N[C@@H](CCCCN)C(=O)N[C@@H](C)C(=O)N[C@@H](CC(=O)O)C(N)=O [SEQ ID NO: 51] ({FITC}-YGRKKRRQRRRDGRRRFNSADYKGPRRRKAD-NH2),–,–,"MBIC50 ([1]; peptide concentration leading to 50% biofilm reduction, MHB, 37°C, 24 hours, without agitation): below 0.25 mg/L; concentration up to which no toxic effect was shown (epithelial HeLa cells): ≤ 64 µg/mL"
C[C@H](NC(=O)[C@H](CO)NC(=O)[C@H](CC(N)=O)NC(=O)[C@H](Cc1ccccc1)NC(=O)[C@H](CCCNC(=N)N)NC(=O)[C@H](CCCNC(=N)N)NC(=O)[C@H](CCCNC(=N)N)NC(=O)[C@H](CC(=O)O)NC(=S)Nc1ccc2c(c1)C(=O)OC21c2ccc(O)cc2Oc2cc(O)ccc21)C(=O)N[C@@H](CC(=O)O)C(=O)N[C@@H](Cc1ccc(O)cc1)C(=O)N[C@@H](CCCCN)C(=O)NCC(=O)N1CCC[C@H]1C(=O)N[C@@H](CCCNC(=N)N)C(=O)N[C@@H](CCCNC(=N)N)C(=O)N[C@@H](CCCNC(=N)N)C(=O)N[C@@H](CCCCN)C(=O)N[C@@H](C)C(=O)N[C@@H](CC(=O)O)C(N)=O [compound 43] ({FITC}-DRRRFNSADYKGPRRRKAD-NH2),–,–,"MBIC50 ([1]; PAO1, 24 h): 0.25 to 0.5 mg/L"
Ac-DRRRFNSADYKGPRRRKAA-NH2 [compound 31],26,1.75,–
Ac-DRRRFNSADYKAPRRRKAD-NH2 [compound 24],41,4.07,–
Ac-DRRAFNSADYKGPRRRKAD-NH2 [compound 16],35,0.78,–
C[C@H](NC(=O)[C@H](CO)NC(=O)[C@H](CC(N)=O)NC(=O)[C@H](Cc1ccccc1)NC(=O)[C@H](CCCNC(=N)N)NC(=O)[C@H](CCCNC(=N)N)NC(=O)[C@H](CCCNC(=N)N)NC(=O)[C@H](CC(=O)O)NC(=O)[C@H](CCCNC(=N)N)NC(=O)[C@H](CCCNC(=N)N)NC(=O)[C@H](CCCNC(=N)N)NC(=O)[C@H](CCCNC(=N)N)NC(=O)[C@H](CCCNC(=N)N)NC(=O)[C@H](CCCNC(=N)N)NC(=O)[C@H](CCCNC(=N)N)NC(=O)[C@H](CCCNC(=N)N)NC(=S)Nc1ccc2c(c1)C(=O)OC21c2ccc(O)cc2Oc2cc(O)ccc21)C(=O)N[C@@H](CC(=O)O)C(=O)N[C@@H](Cc1ccc(O)cc1)C(=O)N[C@@H](CCCCN)C(=O)NCC(=O)N1CCC[C@H]1C(=O)N[C@@H](CCCNC(=N)N)C(=O)N[C@@H](CCCNC(=N)N)C(=O)N[C@@H](CCCNC(=N)N)C(=O)N[C@@H](CCCCN)C(=O)N[C@@H](C)C(=O)N[C@@H](CC(=O)O)C(N)=O [SEQ ID NO: 48] ({FITC}-RRRRRRRRDRRRFNSADYKGPRRRKAD-NH2),–,–,concentration up to which no toxic effect was shown (epithelial HeLa cells): ≤ 32 µg/mL
Ac-DRRRFNSADYAGPRRRKAD-NH2 [compound 23],42,0.26,–
Ac-DRRRFNSADYKGPRRRKLD-NH2 [compound 30],51,0.25,–
Ac-DARRFNSADYKGPRRRKAD-NH2 [compound 14],12,1.45,–
